Measured values taken from publication PMC9574860, “Chemical Toolkit for PARK7: Potent, Selective, and High-Throughput” (Journal of Medicinal Chemistry, 2022).
Where two headings read alike, the source gives them in different places.

Legend:
Format in all cases: biochemical
[1] = target: T1, UCHL1 (Homo sapiens, UniProt P09936); test: Gel-based competition assay with probe 8RK59, UCHL1 band
T1 sequence (P09936 1-223): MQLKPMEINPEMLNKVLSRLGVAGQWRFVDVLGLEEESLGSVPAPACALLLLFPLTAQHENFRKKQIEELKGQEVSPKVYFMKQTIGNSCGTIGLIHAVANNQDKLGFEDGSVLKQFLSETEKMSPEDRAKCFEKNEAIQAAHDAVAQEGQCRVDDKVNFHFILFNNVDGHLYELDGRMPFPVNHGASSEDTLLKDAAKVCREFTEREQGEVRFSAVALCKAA
Method: To assess the inhibitory potency and selectivity of these compounds toward PARK7 and UCHL1, we performed a gel-based competition assay (Figure 3A).[36] A mixture of equal amounts of PARK7 and UCHL1 (1 μM) was treated with each of the synthesized compounds (2 μM) for 1 h, followed by incubation with fluorescent probe 8RK59 (2 μM) for 30 min. Samples were resolved by SDS-PAGE, and the gel was scanned for fluorescence. Inhibition of PARK7 or UCHL1 is reflected by the disappearance of their corresponding bands (Figure 3B). […] The inhibition potential of JYQ-88 against PARK7 was assessed in a similar assay where PARK7 was incubated with a serial dilution of JYQ-88 before treatment with probe 8RK59 (Figure 3C). A clear inhibition is visible at 0.5 μM, and full inhibition is achieved between 1 and 2 μM. […] The selectivity of JYQ-88 between UCHL1 and PARK7 was further confirmed in a direct competition assay between equal amounts of PARK7 and UCHL1 (Figure 3F). PARK7 inhibition was observed starting from 0.5 μM JYQ-88, whereas inhibition of UCHL1 was only detected at 20 μM. Since JYQ-88 and 8RK64 are enantiomers, we assumed that the interactions with PARK7 should be similar. To investigate how the chiral center influences the selectivity, we solved the crystal structure of the PARK7−JYQ-88 complex with 1.42 Å resolution (Figure 3G, Table S1, PDB 7PA3). The global positioning of the inhibitor in between the two α-helices was similar to that for 8RK64. […] This way, the thiazolo-pyridine part of JYQ-88 is bound in a similar manner as 8RK64 and the earlier observed interactions are largely the same. The formation of the isothiourea moiety, stabilized by the interaction with Glu18, and the interaction between the thiazole amine and the amide NH2 of the Asn76 side chain are still present. However, the interaction between the azidoacetyl carbonyl with the Leu128 backbone carbonyl can no longer be observed due to the rotation of the azidoacetyl moiety. The Lys132 residue also seems to have rotated (compared to Figure 2C).
The assay was performed in Tris buffer as described above.

[2] = target: T2, PARK7 (Homo sapiens, UniProt Q99497); test: Gel-based competition assay in HEK293T cell lysate with probe JYQ-92; design: GST (N, cleaved yes); made in house; host or cells: E. coli BL21(DE3) Rosetta2; settings: inhibitor 1 h 37 °C, then JYQ-92 1 μM 30 min, Figure 4E
T2 sequence (Q99497 1-189): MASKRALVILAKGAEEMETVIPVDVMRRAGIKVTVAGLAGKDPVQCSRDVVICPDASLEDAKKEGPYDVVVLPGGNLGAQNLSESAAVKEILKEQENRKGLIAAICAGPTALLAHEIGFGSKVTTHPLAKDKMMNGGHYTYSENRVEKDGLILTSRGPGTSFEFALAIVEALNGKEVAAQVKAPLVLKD
Excerpt: We next assessed whether we could measure the inhibitory activity of an inhibitor against PARK7 in a cell lysate using JYQ-92 to label the remaining activity of PARK7. […] The disappearance of the labeling band is a measure for inhibition.

[3] = target: T1, UCHL1; test: UCHL1 activity assay (Ub-Rho-Morpholine or Ub-AMC substrate); settings: UCHL1 1 nM, 1 h preincubation

SMILES: N#CN1CC[C@@H](C(=O)Nc2nc3c(s2)CN(C(=O)CN=[N+]=[N-])CC3)C1 [JYQ-88, (R)-N-(5-(2-Azidoacetyl)-4,5,6,7-tetrahydrothiazolo[5,4-c]pyridin-2-yl)-1-cyanopyrrolidine-3carboxamide]
- Inhibition of UCHL1 (disappearance of 8RK59-labeled band) ([1]; compound 2 μM, 1 h, PARK7 and UCHL1 1 μM each, then 8RK59 2 μM 30 min, Figure 3B): without inhibiting
- Concentration at which inhibition of UCHL1 was detected ([1]; direct competition, equal amounts of PARK7 and UCHL1, Figure 3F): 20 µM
- Inhibitor concentration at which the PARK7 labeling band intensity is already decreased [2]: 0.1 µM
- Inhibitor concentration from which the PARK7 labeling band has nearly disappeared [2]: 1 µM
- IC50 ([3]; Figure 3E, read-out: UCHL1 IC50): 11.1 µM
- IC50 ([3]; read-out: UbRhoMP assay UCHL1 IC50): 11.2 µM
